Data taken from US20130316349A1, “N-METHYLPURINE DNA GLYCOSYLASE AND POLYMERASE BETA AS BIOMARKERS FOR ALKYLATOR CHEMOTHERAPY POTENTIATION” (University of Pittsburgh - Of the Commonwealth System of …, priority 2010, published 2013).
Entries after “also recorded” stand apart in the source; their conditions may differ. Blank lines part the entries; values can stand above or below the compound they belong to.

What was measured:
[1] = test system: T98G/MPG cells; experiment: Long-term cell survival assay (10 days); conditions: for ABT-888-induced potentiation of TMZ: T98G/MPG vs T98G, 50 and 100 μM TMZ, p<0.05 and p<0.01
Procedure: (§1) Results were calculated from the average of three or four separate experiments and are reported as the percentage of treated cells relative to the cells without treatment (% control).

[2] = test system: T98G cells; experiment: Long-term cell survival assay (10 days); type: cell-based; conditions: 50 and 100 μM TMZ
Procedure: as §1

[3] = test system: T98G/MPG/Polβ KD cells; experiment: Long-term cell survival assay (10 days)
Procedure: as §1

[4] = test system: LN428/MPG/Flag-Pol β-K72A cells; experiment: Short-term cell survival assay (48 hours MTS assay); type: cell-based; conditions: 5′ dRP lyase null mutant Polβ (K72A) over-expressed in LN428/MPG
Procedure: as §1

[5] = test system: LN428 cells over-expressing mutant MPG (N169D); experiment: as above; type: cell-based; conditions: glycosylase dead mutant MPG (N169D) over-expressed in LN428
Procedure: as §1

[6] = test system: LN428 cells; experiment: as above; type: cell-based; conditions: MX 60 mM 30 min, then TMZ with MX 30 mM 48 hours
Procedure: as §1

[7] = test system: LN428/MPG cells (MPG over-expressing); experiment: as above; type: cell-based; conditions: MX 60 mM 30 min, then TMZ with MX 30 mM 48 hours; LN428/MPG vs LN428
Procedure: as §1

[8] = test system: LN428/MPG/Flag-APE1 cells; experiment: as above; type: cell-based; conditions: APE1 over-expressed in LN428/MPG
Procedure: as §1

[9] = test system: LN428/MPG/Flag-Polβ-WT cells; experiment: as above; type: cell-based; conditions: WT Polβ over-expressed in LN428/MPG
Procedure: as §1

[10] = test system: LN428/MGMT/MPG cells; experiment: Long-term cell survival assay (10 days); type: cell-based; conditions: pre- (4 μM) and co-treatment with PJ34 (2 μM); LN428/MGMT/MPG vs LN428/MGMT
Procedure: as §1

[11] = test system: PARP; conditions: PJ34 at 2 μM; cited from earlier work
[12] = test system: LN428/MGMT cells; experiment: Long-term cell survival assay (10 days); type: cell-based; conditions: pre- (4 μM) and co-treatment with PJ34 (2 μM)
Procedure: as §1

[13] = test system: T98G/MPG/Polβ KD cells
Procedure: as §1

[14] = test system: degradation of PAR (PARG); experiment: Immunoblot for PAR after TMZ exposure in LN428/MPG cells; type: cell-based; conditions: 1.5 mM TMZ
Procedure: Twenty microgram of protein was loaded on a precast 4-20% NuPAGE™ Tris-Glycine gel (Invitrogen, Carlsbad, Calif.). For whole cell extracts used in probing Poly(ADP-ribose) (PAR), 3×10^6 cells were seeded into a 100 mm cell culture dish 24 hours before drug treatment. Cells were then treated with TMZ (1.5 mM) or DMSO (control) for different periods of time. After treatment, cells were washed twice with cold PBS, collected and lysed in 400 μL of 2×Laemmli buffer (2% SDS, 20% Glycerol, 62.5 mM Tris-HCl pH6.8, 0.01% Bromophenol Blue). Samples were boiled for 8 minutes and extracts from approximately 1.5×10^5 cells were loaded each lane on a 4-12% pre-cast NuPAGE™ Tris-Glycine gel (Invitrogen, Carlsbad, Calif.) for immunoblot analysis. The following primary antibodies were used in immunoblot assays: anti-human MPG (Mab; clone 506-3D) (Trivedi et al., Mol. Pharmacol, 2008); anti-Polβ (Mab clone 61; Thermo Fisher Scientific); anti-APE1 (EMD Biosciences); anti-PCNA (Santa Cruz); anti-poly(ADP-ribose) (PAR) (Clone 10H); anti-MGMT (Novus, Littleton, Colo.).

[15] = test system: PARG mRNA; experiment: qRT-PCR of PARG mRNA in LN428/MPG cells stably expressing shRNA; type: cell-based; conditions: LN428/MPG cells stably expressing each shRNA
Procedure: Human WT MPG, mutant MPG (N169D), WT Flag Polβ and Flag Pol β (K72A) expressing cell lines were developed by transfecting cells with corresponding plasmids using FuGene™ 6 Transfection Reagent (Roche, Indianapolis, Ind.) according to the manufacturer's protocol. Transfected cells were cultured in G418 and/or Puromycin for 2 weeks and individual clones stably expressing human MPG or Pol β were selected. Lentiviral particles were generated by co-transfection of 4 plasmids, pLKO.1-puro-TurboGFP (control, expresses GFP) or pCMV-tGFP-PARG (PARG shRNA, co-expresses PARG shRNA and GFP) together with pMD2.g(VSVG), pVSV-REV and PMDLg/pRRE, into 293-FT cells (Zufferey et al., J. Virol., 72:9873-9880, 1998; Zufferey et al., Nat. Biotechnol., 15:871-875, 1997) using FuGene™ 6 Transfection Reagent (Roche, Indianapolis, Ind.), as described previously (Tang et al., Mol. Cancer Res. 8(1):67-79, 2010). […] Cells expressing copGFP only or both copGFP and PARG specific shRNA were isolated by fluorescence activated cell sorting (FACS).
Expression of MPG, Polβ and PARP1 in the cell lines was measured by quantitative RT-PCR using an Applied Biosystems StepOnePlus™ system as described previously (Tang et al., Mol Cancer Res 8:67-79, 2010). […] Each sample was analyzed in triplicate and the results are an average of all three analyses. […]

Compound: C[C@]1(c2nc3c(C(N)=O)cccc3[nH]2)CCCN1 [ABT-888]
- cells killed by ABT-888 treatment alone ([1]; T98G/MPG cells, no TMZ): ~30%
- ABT-888-induced potentiation of TMZ [1]: significantly increased the potentiation induced by ABT-888
- ABT-888-induced potentiation of TMZ ([1]; listed as A8T-888): significantly increased A8T-888-induced potentiation of TMZ
- ABT-888-induced potentiation of TMZ [2]: sensitized T98G cells to TMZ
- cells killed by ABT-888 treatment alone ([3]; T98G/MPG/Polβ KD cells, no TMZ): about 70%
- ABT-888-induced potentiation of TMZ (cytotoxicity of TMZ and ABT-888 vs TMZ alone) ([3]; T98G/MPG/Polβ KD, 25 and 50 μM TMZ, p<0.01): significantly increased ABT-888-induced potentiation of TMZ; also recorded: significantly increased cytotoxicity compared to TMZ treatment alone

Compound: CON [MX, Methoxyamine]
- MX-induced potentiation of TMZ [4]: did not affect MX-induced potentiation of TMZ
- MX-induced potentiation of TMZ [5]: did not sensitize LN428 cells to a combined treatment of MX and TMZ
- MX-induced potentiation of TMZ [6]: sensitized both cell lines to TMZ
- MX-induced potentiation of TMZ [7]: dramatically increases MX-induced potentiation of TMZ; also recorded: much higher in the MPG over-expressing cells
- MX-induced potentiation of TMZ [8]: did not alter the potentiation of TMZ induced by MX
- MX-induced potentiation of TMZ [9]: dramatically reduced the potentiation induced by MX

Compound: CN(C)CC(=O)Nc1ccc2[nH]c(=O)c3ccccc3c2c1 [PJ34]
- PJ34-induced potentiation of TMZ [10]: substantially increased PJ34-induced potentiation of TMZ; also recorded: much higher in the MPG over expressing cells
- level of PARP activation following exposure to TMZ [11]: significantly reduced the level of PARP activation
- PJ34-induced potentiation of TMZ [12]: sensitized cells to TMZ

- IC50 [13]: < 25 µM
Compound: Cn1nnc2c(C(N)=O)ncn2c1=O [TMZ, 3-methyl-2-oxo-1,3,4,5,8-pentazabicyclo[4.3.0]nona-4,6,8-triene-7-carbooxamide]

Compound: PARG shRNA #2: MISSION TRC shRNA targeting PARG, SEQ ID NO: 10 (CCGGCGATTGCATGTCACTTACGAACTCGAGTTCGTAAGTGACATGCAATCGTTTTTG)
- degradation of PAR following exposure to TMZ [14]: greatly decreased the degradation of PAR
- level of PARG mRNA (rank among five shRNA constructs) [15]: second lowest

Compound: PARG shRNA #4: MISSION TRC shRNA targeting PARG, SEQ ID NO: 12; used for PARG KD (CCGGGCTGAGCGAGATGTGGTTTATCTCGAGATAAACCACATCTCGCTCAGCTTTTTG)
- degradation of PAR following exposure to TMZ [14]: greatly decreased the degradation of PAR
- level of PARG mRNA (rank among five shRNA constructs) [15]: lowest
